From PMC5410048, “A retro-inverso cell-penetrating peptide for siRNA delivery” (Journal of Nanobiotechnology, 2017) come the findings set out here.

Assay in data set [1]: not given
The source holds these as a separate data set.

Assay in data set [2]: not given
This is another data set of the same source.

Assay in data set [3]: not given
The source holds these as a separate data set.

Non-standard residues stand in square brackets, D forms with d. Residues, ends and D or L forms follow the SMILES beside them.

In the case of `CC(C)C[C@@H](NC(=O)[C@@H](Cc1c[nH]c2ccccc12)NC(=O)[C@@H](CCCNC(=N)N)NC(=O)[C@@H](C)NC(=O)[C@@H](CC(C)C)NC(=O)[C@@H](Cc1c[nH]c2ccccc12)NC(=O)[C@@H](CCCNC(=N)N)NC(=O)[C@@H](CC(C)C)NC(=O)[C@@H](CC(C)C)NC(=O)[C@@H](CCCNC(=N)N)NC(=O)[C@@H](CO)NC(=O)[C@@H](CC(C)C)NC(=O)[C@@H](Cc1c[nH]c2ccccc12)NC(=O)[C@@H](CCCNC(=N)N)NC(=O)[C@@H](CC(C)C)NC(=O)[C@@H](CC(C)C)NC(=O)[C@@H](Cc1c[nH]c2ccccc12)NC(=O)[C@H](N)CCCCN)C(=O)NCC(=O)O` (H-[dK][dW][dL][dL][dR][dW][dL][dS][dR][dL][dL][dR][dW][dL][dA][dR][dW][dL]G-OH), the Tryptophan fluorescence emission maximum with siRNA came to 340 nm. In data set [1], the Tryptophan fluorescence emission maximum, free peptide stood at 345 nm. Moreover, the Blue shift of tryptophan fluorescence with excess liposomes in data set [2] came to 10 nm.
In the case of H-GLWRALWRLLRSLWRLLWK-OH, the Tryptophan fluorescence emission maximum with siRNA was found to be 340 nm. In addition, the Tryptophan fluorescence emission maximum, free peptide in data set [1] is 348 nm.
In the case of `CC(C)C[C@@H](NC(=O)CN)C(=O)N[C@H](Cc1c[nH]c2ccccc12)C(=O)N[C@H](CCCNC(=N)N)C(=O)N[C@H](C)C(=O)N[C@H](CC(C)C)C(=O)N[C@H](Cc1c[nH]c2ccccc12)C(=O)N[C@H](CCCNC(=N)N)C(=O)N[C@H](CC(C)C)C(=O)N[C@H](CC(C)C)C(=O)N[C@H](CCCNC(=N)N)C(=O)N[C@H](CO)C(=O)N[C@H](CC(C)C)C(=O)N[C@H](Cc1c[nH]c2ccccc12)C(=O)N[C@H](CCCNC(=N)N)C(=O)N[C@H](CC(C)C)C(=O)N[C@H](CC(C)C)C(=O)N[C@H](Cc1c[nH]c2ccccc12)C(=O)N[C@H](CCCCN)C(=O)O` (H-G[dL][dW][dR][dA][dL][dW][dR][dL][dL][dR][dS][dL][dW][dR][dL][dL][dW][dK]-OH), the Mean size (nm) at 0 h, Nb (%) in data set [3] worked out at 30 nm.
